From patent US20070299091A1, “Azaindole Carboxamides” (priority 2004, published 2007)

What was measured:
D1-receptor = molecular target: T1, D1-receptor (Sus scrofa, UniProt P50130); assay: radioligand binding, D1 receptor, [3H]SCH 23390, porcine striatum membrane homogenates; conditions: porcine D1, [3H]SCH 23390; average of 2-6 experiments in triplicate
T1 construct: native membrane homogenates, obtained from porcine striatum; from tissue; host or cells: porcine striatum
Experimental: (§1) The biological activities of the compounds according to the invention were determined in radioligand bonding investigations. All radioligand experiments were performed according to methods described by us (Hübner, H. et al. J. Med. Chem. 2000, 43, 756-762). For the measurement of the affinities to the receptors of the D2-family membrane homogenates of Chinese hamster ovary cells (CHO cells) were used, which stably express the human D2long-, the human D2short- (Hayes, G. et al. Mol. Endocrinol. 1992, 6, 920-926), the human D3- (Sokoloff, P. et al. Eur. J. Pharmacol. 1992, 225, 331-337) or the human D4.4-receptor sub-type, (Asghari, V. J. Neurochem. 1995, 65,1157-1165) respectively. Basically the binding assays took place by incubation of the receptor homogenates with the radioligand [^3H]spiperone and the compounds under investigation in various concentrations. Determination of the affinities to the D1-receptor took place with native membrane homogenates, obtained from porcine striatum, and the D1-selective radioligands [^3H]SCH 23390.

human D2long = molecular target: T2, human D2long (Homo sapiens, UniProt P14416); assay: radioligand binding, [3H]spiperone, CHO cell membrane homogenates expressing human D2long; conditions: for Ki: human D2long, [3H]spiperon, average of 2-6 experiments in triplicate; for D3-selectivity D2long/D3: ratio of Ki values D2long/D3
T2 construct: expressed in transfected cells
Experimental: (§2) The biological activities of the compounds according to the invention were determined in radioligand bonding investigations. […] Mol. […] Neurochem. […] Basically the binding assays took place by incubation of the receptor homogenates with the radioligand [^3H]spiperone and the compounds under investigation in various concentrations.

human D2short = molecular target: T3, human D2short (Homo sapiens, UniProt P14416); assay: radioligand binding, [3H]spiperone, CHO cell membrane homogenates expressing human D2short; conditions: for Ki: human D2short, [3H]spiperon, average of 2-6 experiments in triplicate; for D3-selectivity D2short/D3: ratio of Ki values D2short/D3
T3 construct: expressed in transfected cells
Experimental: as §2

human D3 = molecular target: T4, human D3 (Homo sapiens, UniProt P35462); assay: radioligand binding, [3H]spiperone, CHO cell membrane homogenates expressing human D3; conditions: human D3, [3H]spiperon; average of 2-6 experiments in triplicate
T4 construct: expressed in transfected cells
Experimental: as §1

human D4.4-receptor = molecular target: T5, human D4.4-receptor (Homo sapiens, UniProt P21917); assay: radioligand binding, [3H]spiperone, CHO cell membrane homogenates expressing human D4.4; conditions: for Ki: human D4.4, [3H]spiperon, average of 2-6 experiments in triplicate; for D3-selectivity D4.4/D3: ratio of Ki values D4.4/D3
T5 construct: expressed in transfected cells
T5 sequence (P21917 1-419): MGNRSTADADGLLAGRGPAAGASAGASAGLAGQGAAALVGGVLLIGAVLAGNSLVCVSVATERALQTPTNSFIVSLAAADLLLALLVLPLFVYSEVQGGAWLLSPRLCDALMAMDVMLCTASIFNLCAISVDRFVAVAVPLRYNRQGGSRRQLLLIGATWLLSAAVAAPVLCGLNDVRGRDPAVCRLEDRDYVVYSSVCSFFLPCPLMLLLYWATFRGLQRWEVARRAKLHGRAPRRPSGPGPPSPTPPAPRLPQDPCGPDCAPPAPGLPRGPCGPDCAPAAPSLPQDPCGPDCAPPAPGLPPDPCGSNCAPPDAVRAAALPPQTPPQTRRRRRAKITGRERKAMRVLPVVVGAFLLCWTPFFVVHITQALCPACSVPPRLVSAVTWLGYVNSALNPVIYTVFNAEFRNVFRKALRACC
Experimental: as §2

dopamine-D3-receptor = molecular target: T6, dopamine-D3-receptor (Homo sapiens, UniProt P35462); assay: mitogenesis assay, [3H]thymidine incorporation in D3 receptor-expressing cells; assay type: cell-based; conditions: for EC50: dose-effect curve from average values of all individual trials, seven concentrations in quadruplicate; for classification of intrinsic activity at the D3-receptor: mitogenesis assay, compared with full agonist quinpirol; for agonistic activity: with reference to the maximum effect of the full agonist Quinpirol
T6 construct: expressed in transfected cells
Experimental: Here various concentrations of the compound under investigation were incubated with D3 receptor-expressing cells and then the receptor-mediated stimulation of the mitogenesis rate was measured by incorporation of the radioactive marker [^3H]thymidine.

5-HT1A [1] = molecular target: T7, 5-HT1A (Sus scrofa, UniProt A0A4X1UTF5); assay: radioligand binding, [3H]8-OH-DPAT, porcine cortex-membrane preparations; conditions: porcine 5-HT1A, [3H]8-OH-DPAT; average of 2 experiments in triplicate
T7 construct: we incubated porcine cortex-membrane preparations with the radioligands; from tissue; host or cells: porcine cortex
T7 sequence (A0A4X1UTF5 1-422): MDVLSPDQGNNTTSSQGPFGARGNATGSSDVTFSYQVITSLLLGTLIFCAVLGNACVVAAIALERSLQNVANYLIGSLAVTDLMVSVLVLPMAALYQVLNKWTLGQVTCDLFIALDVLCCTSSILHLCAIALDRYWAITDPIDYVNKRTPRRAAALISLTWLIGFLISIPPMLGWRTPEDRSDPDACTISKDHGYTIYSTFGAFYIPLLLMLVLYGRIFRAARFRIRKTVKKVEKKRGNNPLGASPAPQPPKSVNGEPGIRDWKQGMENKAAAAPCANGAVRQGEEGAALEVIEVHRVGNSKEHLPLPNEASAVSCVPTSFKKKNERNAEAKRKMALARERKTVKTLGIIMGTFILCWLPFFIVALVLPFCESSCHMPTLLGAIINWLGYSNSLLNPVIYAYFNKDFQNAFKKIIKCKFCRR
Experimental: (§3) Measurement of the bonding strengths of the compounds to the serotonin-receptor subtypes 5-HT1A and 5-HT2 was carried out according to methods described by us (Heindl, C. et al. Tetrahedron: Asymmetry 2003, 14, 3141-3152). For this we incubated porcine cortex-membrane preparations with the radioligands [^3H]8-OH-DPAT (for 5-HT1A) or [^3H]ketanserin (5-HT2) and the compounds in various concentrations. In the same way the affinity of the test compounds to the porcine α1-receptor was investigated, wherein porcine cortex-membrane preparations and the α1-selective radioligand [^3H]prazosin were used.

5-HT1A [2] = assay: as above; conditions: ratio of Ki values 5-HT1A/D3
Experimental: as §3

5-HT2 = 5-HT2 (Sus scrofa, UniProt P50129); assay: radioligand binding, [3H]ketanserin, porcine cortex-membrane preparations; conditions: for Ki: porcine 5-HT2, [3H]ketanserin, average of 2 experiments in triplicate; for D3-selectivity 5-HT2/D3: ratio of Ki values 5-HT2/D3
Experimental: as §3

porcine α1-receptor [3] = assay: radioligand binding, [3H]prazosin, porcine cortex-membrane preparations; conditions: ratio of Ki values α1/D3
Experimental: as §3

porcine α1-receptor [4] = molecular target: T8, porcine α1-receptor; assay: as above; conditions: porcine α1, [3H]prazosin; average of 2 experiments in triplicate
T8 construct: Ki-values α1; other: porcine α1, [3H]prazosin; average of 2 experiments in triplicate
Experimental: as §3

T4 sequence (P35462 whole entry): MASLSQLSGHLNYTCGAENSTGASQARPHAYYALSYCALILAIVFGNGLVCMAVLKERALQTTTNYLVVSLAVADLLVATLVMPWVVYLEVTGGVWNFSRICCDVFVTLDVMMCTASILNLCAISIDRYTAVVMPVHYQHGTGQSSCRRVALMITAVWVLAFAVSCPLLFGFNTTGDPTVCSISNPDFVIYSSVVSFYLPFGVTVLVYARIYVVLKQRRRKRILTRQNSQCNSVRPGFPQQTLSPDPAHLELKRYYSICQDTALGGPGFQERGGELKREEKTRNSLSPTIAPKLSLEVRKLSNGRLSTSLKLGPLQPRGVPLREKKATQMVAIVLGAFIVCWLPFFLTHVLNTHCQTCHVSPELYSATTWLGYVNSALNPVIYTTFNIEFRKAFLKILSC
T6 sequence (P35462 whole entry): as above
T3 sequence (P14416 1-414 isoform P14416-2): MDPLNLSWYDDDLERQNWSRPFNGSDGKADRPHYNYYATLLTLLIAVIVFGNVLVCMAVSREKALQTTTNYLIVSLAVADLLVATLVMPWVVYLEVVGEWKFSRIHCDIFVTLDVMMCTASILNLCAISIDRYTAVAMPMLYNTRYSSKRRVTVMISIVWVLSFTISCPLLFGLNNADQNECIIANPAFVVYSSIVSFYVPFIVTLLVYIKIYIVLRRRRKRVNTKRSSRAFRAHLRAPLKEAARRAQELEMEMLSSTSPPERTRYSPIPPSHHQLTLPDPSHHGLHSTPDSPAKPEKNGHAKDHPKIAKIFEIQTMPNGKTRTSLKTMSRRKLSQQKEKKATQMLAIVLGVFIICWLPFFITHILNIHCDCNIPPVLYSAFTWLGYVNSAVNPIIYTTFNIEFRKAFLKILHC
5-HT2, sequence (P50129 whole entry): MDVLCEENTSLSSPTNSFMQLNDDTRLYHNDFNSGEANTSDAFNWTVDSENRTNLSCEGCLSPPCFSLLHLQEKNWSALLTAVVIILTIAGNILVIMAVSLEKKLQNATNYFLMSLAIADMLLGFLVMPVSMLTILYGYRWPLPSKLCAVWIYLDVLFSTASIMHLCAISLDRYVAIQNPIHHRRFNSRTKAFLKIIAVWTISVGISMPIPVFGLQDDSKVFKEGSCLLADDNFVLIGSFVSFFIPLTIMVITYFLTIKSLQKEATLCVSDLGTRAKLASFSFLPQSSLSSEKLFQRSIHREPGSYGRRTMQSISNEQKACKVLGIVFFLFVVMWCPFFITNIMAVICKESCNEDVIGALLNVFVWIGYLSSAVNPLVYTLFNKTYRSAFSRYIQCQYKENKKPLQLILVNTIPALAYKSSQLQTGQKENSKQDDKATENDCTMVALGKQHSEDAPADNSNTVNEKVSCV
T1 sequence (P50130 whole entry): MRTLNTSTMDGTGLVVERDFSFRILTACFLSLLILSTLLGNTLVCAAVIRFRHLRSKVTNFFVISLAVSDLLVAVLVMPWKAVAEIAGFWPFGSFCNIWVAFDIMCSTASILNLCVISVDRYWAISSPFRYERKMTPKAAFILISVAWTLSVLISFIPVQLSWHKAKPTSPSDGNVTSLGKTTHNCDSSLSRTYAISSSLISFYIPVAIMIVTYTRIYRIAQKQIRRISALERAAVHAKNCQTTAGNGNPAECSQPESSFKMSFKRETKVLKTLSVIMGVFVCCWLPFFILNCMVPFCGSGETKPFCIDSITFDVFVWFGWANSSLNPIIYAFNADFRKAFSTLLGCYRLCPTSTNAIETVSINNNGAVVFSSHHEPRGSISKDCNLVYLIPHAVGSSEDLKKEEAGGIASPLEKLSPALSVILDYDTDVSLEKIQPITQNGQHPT
T2 sequence (P14416 whole entry): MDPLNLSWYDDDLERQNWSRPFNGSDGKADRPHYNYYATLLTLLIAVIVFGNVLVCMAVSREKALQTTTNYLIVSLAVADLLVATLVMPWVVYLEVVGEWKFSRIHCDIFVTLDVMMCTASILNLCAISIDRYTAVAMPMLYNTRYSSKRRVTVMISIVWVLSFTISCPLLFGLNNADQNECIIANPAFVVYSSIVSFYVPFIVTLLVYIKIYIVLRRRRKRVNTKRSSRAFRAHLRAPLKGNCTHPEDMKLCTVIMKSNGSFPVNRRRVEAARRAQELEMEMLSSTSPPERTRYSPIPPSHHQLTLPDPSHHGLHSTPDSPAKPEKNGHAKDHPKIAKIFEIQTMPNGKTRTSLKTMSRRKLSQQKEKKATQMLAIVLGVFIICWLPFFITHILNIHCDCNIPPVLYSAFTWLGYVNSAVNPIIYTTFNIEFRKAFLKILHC

For `COc1ccccc1N1CCN(CCCCNC(=O)c2cc3cccnc3[nH]2)CC1` [Example 1, N-(4-(4-(2-methoxyphenyl)piperazin-1-yl)butyl)-1H-pyrrolo[2,3-b]pyridin-2-ylcarbamide], the Ki (D1-receptor) was 1500 nM, the Ki (human D2long) was 58 nM and the “D3-selectivity D2long/D3” value (human D2long) was 71. For the same compound, the Ki (human D2short) was 42 nM, the “D3-selectivity D2short/D3” value (human D2short) was 51 and the Ki (human D3) was 0.82 nM. For the same compound, the Ki (human D4.4-receptor) was 32 nM, the “D3-selectivity D4.4/D3” value (human D4.4-receptor) was 39 and the EC50 (dopamine-D3-receptor) was 0.96 nM. For the same compound, the “classification of intrinsic activity at the D3-receptor” value (shortened to “classification of intrinsic activity”) (dopamine-D3-receptor) was “weakly partially agonistic”, the agonistic activity (dopamine-D3-receptor) was 14% and the Ki (5-HT1A [1]) was 23 nM. The “D3-selectivity 5-HT1A/D3” value (5-HT1A [2]) was 28, the Ki (5-HT2) was 340 nM and the “D3-selectivity α1/D3” value (porcine α1-receptor [3]) was 1.6. It also gave a Ki (porcine α1-receptor [4]) of 1.3 nM and a melting point of 117 °C.
With `COc1ccccc1N1CCN(CCCCNC(=O)c2cc3cccnc3n2S(=O)(=O)c2ccccc2)CC1` [Example 2, N-(4-(4-(2-methoxyphenyl)piperazin-1-yl)butyl)-1-phenylsulfonyl-1H-pyrrolo[2,3-b]pyridin-2-ylcarbamide] the Ki (D1-receptor) was 1300 nM, the Ki (human D2long) was 180 nM and the “D3-selectivity D2long/D3” value (human D2long) was 19. For the same compound, the Ki (human D2short) was 110 nM, the “D3-selectivity D2short/D3” value (human D2short) was 12 and the Ki (human D3) was 9.3 nM. For the same compound, the Ki (human D4.4-receptor) was 130 nM, the “D3-selectivity D4.4/D3” value (human D4.4-receptor) was 14 and the EC50 (dopamine-D3-receptor) was 7.9 nM. For the same compound, the “classification of intrinsic activity” value (dopamine-D3-receptor) was “weakly partially agonistic”, the agonistic activity (dopamine-D3-receptor) was 12% and the Ki (5-HT1A [1]) was 14 nM. For the same compound, the “D3-selectivity 5-HT1A/D3” value (5-HT1A [2]) was 1.5, the Ki (5-HT2) was 1100 nM and the “D3-selectivity 5-HT2/D3” value (5-HT2) was 120. The “D3-selectivity α1/D3” value (porcine α1-receptor [3]) was 0.49, the Ki (porcine α1-receptor [4]) was 4.6 nM and the melting point was 166 °C.
With `O=C(NCCCCN1CCN(c2cccc(Cl)c2Cl)CC1)c1cc2cccnc2[nH]1` [Example 3, N-(4-(4-(2,3-dichlorophenyl)piperazin-1-yl)butyl)-1H-pyrrolo[2,3-b]pyridin-2-ylcarbamide] the Ki (D1-receptor) was 440 nM, the Ki (human D2long) was 19 nM and the “D3-selectivity D2long/D3” value (human D2long) was 150. For the same compound, the Ki (human D2short) was 6.5 nM, the “D3-selectivity D2short/D3” value (human D2short) was 34 and the Ki (human D3) was 0.13 nM. The Ki (human D4.4-receptor) was 42 nM, the “D3-selectivity D4.4/D3” value (human D4.4-receptor) was 320 and the EC50 (dopamine-D3-receptor) was 1.3 nM. For the same compound, the “classification of intrinsic activity” value (dopamine-D3-receptor) was “partial agonist”, the agonistic activity (dopamine-D3-receptor) was 41% and the Ki (5-HT1A [1]) was 24 nM. For the same compound, the “D3-selectivity 5-HT1A/D3” value (5-HT1A [2]) was 180, the Ki (5-HT2) was 63 nM and the “D3-selectivity 5-HT2/D3” value (5-HT2) was 480. The “D3-selectivity α1/D3” value (porcine α1-receptor [3]) was 28, the Ki (porcine α1-receptor [4]) was 3.6 nM and the melting point was 232 °C.
For `O=C(NCCCCN1CCN(c2cccc(Cl)c2Cl)CC1)c1cc2cccnc2n1S(=O)(=O)c1ccccc1` [Example 4, N-(4-(4-(2,3-dichlorophenyl)piperazin-1-yl)butyl)-1-phenylsulfonyl-1H-pyrrolo[2,3-b]pyridin-2-ylcarbamide], the Ki (D1-receptor) was 680 nM, the Ki (human D2long) was 68 nM and the “D3-selectivity D2long/D3” value (human D2long) was 85. For the same compound, the Ki (human D2short) was 39 nM, the “D3-selectivity D2short/D3” value (human D2short) was 49 and the Ki (human D3) was 0.8 nM. For the same compound, the Ki (human D4.4-receptor) was 110 nM, the “D3-selectivity D4.4/D3” value (human D4.4-receptor) was 140 and the EC50 (dopamine-D3-receptor) was 2.1 nM. The “classification of intrinsic activity” value (dopamine-D3-receptor) was “weakly partially agonistic”, the agonistic activity (dopamine-D3-receptor) was 16% and the Ki (5-HT1A [1]) was 16 nM. The “D3-selectivity 5-HT1A/D3” value (5-HT1A [2]) was 20, the Ki (5-HT2) was 200 nM and the “D3-selectivity 5-HT2/D3” value (5-HT2) was 250. The “D3-selectivity α1/D3” value (porcine α1-receptor [3]) was 26, the Ki (porcine α1-receptor [4]) was 21 nM and the melting point was 82 °C.
